Measured values as given in BigSolDB 2.1.

O=C(Nc1ccc([N+](=O)[O-])cc1Cl)c1cc(Cl)ccc1O
solubility (mole fraction)
Settings | in DMSO | in ethanol | in isopropanol | in methanol | in n-butanol | in water
298.15 K | 0.000152 | 0.000166 | 0.000242 | 7.78e-05 | 0.000305 | 3.27e-07
303.15 K | 0.000161 | 0.000183 | 0.000274 | 7.69e-05 | 0.000309 | 4.12e-07
308.15 K | 0.000165 | 0.000186 | 0.000279 | 6.9e-05 | 0.000345 | 4.19e-07
313.15 K | 0.000167 | 0.000186 | 0.000304 | 6.75e-05 | 0.000347 | 4.27e-07
318.15 K | 0.00017 | 0.000199 | 0.000345 | 5.9e-05 | 0.000402 | 4.74e-07
323.15 K | 0.000205 | 0.0002 | 0.000348 | 5.35e-05 | 0.000591 | 6.04e-07

Settings | solubility (mole fraction)
in PEG-200, 298.15 K | 0.000527
in PEG-200, 303.15 K | 0.000556
in PEG-200, 308.15 K | 0.000604
in PEG-200, 313.15 K | 0.000666
in PEG-200, 318.15 K | 0.000686
in PEG-200, 323.15 K | 0.00079
in PEG-400, 298.15 K | 0.0011
in PEG-400, 303.15 K | 0.00129
in PEG-400, 308.15 K | 0.00138
in PEG-400, 313.15 K | 0.00159
in PEG-400, 318.15 K | 0.00168
in PEG-400, 323.15 K | 0.00193
